Values joined by “and” are separate entries in the source; they are usually repeats but may differ in a detail not shown here. Identical values can stand only once.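 Results reflect a 48-hour exposure of cells in 96-well plates to compound at five concentrations. GI50 marks 50% less growth. TGI: total growth inhibition.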
How the values were obtained:
Assay in all cases: growth of human tumour cells (NCI), 48 h
IGROV1 ovarian = tested on: IGROV1 ovarian
OVCAR-8 ovarian = tested on: OVCAR-8 ovarian
SK-MEL-2 melanoma = tested on: SK-MEL-2 melanoma
UACC-62 melanoma = tested on: UACC-62 melanoma
A498 renal = tested on: A498 renal
NCI-H522 lung = tested on: NCI-H522 lung
OVCAR-4 ovarian = tested on: OVCAR-4 ovarian
SK-MEL-5 melanoma = tested on: SK-MEL-5 melanoma
NCI/ADR-RES ovarian = tested on: NCI/ADR-RES ovarian
PC-3 prostate = tested on: PC-3 prostate

| Compound | TGI (IGROV1 ovarian) [µM] | TGI (OVCAR-8 ovarian) [µM] | TGI (SK-MEL-2 melanoma) | TGI (UACC-62 melanoma) [µM] | TGI (A498 renal) | TGI (NCI-H522 lung) [µM] | TGI (OVCAR-4 ovarian) [µM] | TGI (SK-MEL-5 melanoma) | GI50 (IGROV1 ovarian) [µM] | GI50 (NCI-H522 lung) [µM] | GI50 (NCI/ADR-RES ovarian) [µM] | TGI (NCI/ADR-RES ovarian) [µM] | GI50 (OVCAR-4 ovarian) [µM] | GI50 (OVCAR-8 ovarian) [µM] | GI50 (PC-3 prostate) [µM] | TGI (PC-3 prostate) [µM] | GI50 (SK-MEL-5 melanoma) [µM] | GI50 (UACC-62 melanoma) [µM] | GI50 (A498 renal) [µM] | GI50 (SK-MEL-2 melanoma) [µM] |
| --- | --- | --- | --- | --- | --- | --- | --- | --- | --- | --- | --- | --- | --- | --- | --- | --- | --- | --- | --- | --- |
| C#CCC[C@@H]1O[C@@]1(C)CC/C=C(\C)CC/C=C/C=O | 49.6 | 38.3 | > 100 µM | 36.6 |  |  |  |  |  |  |  |  |  |  |  |  |  |  |  |  |
| O=C1c2ccccc2C2(O)Nc3cc(O)ccc3C12O (stereo unspecified) | > 100 | > 100 | > 100 µM | > 100 | > 100 µM | > 100 | > 100 | > 100 µM |  |  |  |  |  |  |  |  |  |  |  |  |
| O=C(NCCCCCCCCNC(=O)c1cnc2ccccc2n1)c1cnc2ccccc2n1 | > 100 | > 100 | > 100 µM | > 100 | > 100 µM |  | > 100 | > 100 µM |  |  |  |  |  |  |  |  |  |  |  |  |
| CC1=CC2CC(C)=C(CC[C@]3(C)CC[C@H]([C@@H](C)C(=O)O)OO3)C(C)(C)C2CC1 (stereo partly specified) | 0.453 | 1.31 | 3.09 µM | 2.81 | 3.14 µM | 0.383 | 0.971 | 2.52 µM |  |  |  |  |  |  |  |  |  |  |  |  |
| CN(C)c1ccc2c(c1)C(=O)N(OS(=O)(=O)c1ccc([N+](=O)[O-])cc1)C2=O | 43 | 61.2 | 87 µM | 31.8 | > 100 µM | 30.5 | 31.5 | > 100 µM |  |  |  |  |  |  |  |  |  |  |  |  |
| CC(=O)N1CCN(C2=Nc3ccccc3CO2)C1=S | 58.1 | > 100 |  | > 100 |  | > 100 | > 100 | 48.4 µM | 18.3 | 49.2 | > 100 | > 100 | 65.3 | > 100 | 87.6 | > 100 | 20.4 | 83 |  |  |
| COc1cc(CCc2cccnc2)cc(OC)c1OC | > 100 | > 100 |  | > 100 | > 100 µM | > 100 | > 100 | > 100 µM |  |  |  |  |  |  |  |  |  |  |  |  |
| CCC[CH2][Sn]([CH2]CCC)([O]C(=O)c1c(F)cccc1F)[O]C(=O)c1c(F)cccc1F | 3 | 2.41 | 0.916 µM | 2.1 | 2.16 µM | 0.213 | 2.55 | 2.52 µM | 1.39 | 0.0905 |  |  | 1.28 | 1.18 |  |  | 1.24 | 0.884 | 0.967 | 0.221 |
| N#Cc1cccc(N2C(=O)c3c(c(-c4ccccc4)c(-c4ccc(Sc5ccc(-c6c(-c7ccccc7)c7c(c(-c8ccccc8)c6-c6ccccc6)C(=O)N(c6cccc(C#N)c6)C7=O)cc5)cc4)c(-c4ccccc4)c3-c3ccccc3)C2=O)c1 | > 100 | > 100 | > 100 µM | > 100 |  | > 100 | > 100 | > 100 µM |  |  |  |  |  |  |  |  |  |  |  |  |
| FC(F)(F)C1(Cl)C(c2ccccc2)=C1c1ccccc1 | 29.5 | 29.1 | 28.5 µM | 27 |  |  | 26.6 | 24 µM |  |  |  |  |  |  |  |  |  |  |  |  |
| O=C(Nc1ccc(Cl)cc1Cl)c1ccc(NC2=C(Cl)C(=O)N(Cc3ccccc3)C2=O)cc1 | > 100 | 25.4 | > 100 µM | 35.3 | 79.7 µM | > 100 |  | 65.8 µM | 12.2 | 31.6 |  |  |  | 12.8 | 13.4 | 26.2 | 20.6 | 18.6 | 31.3 | 54.1 |
| COc1cccc([C@H]2CC(=O)c3cc4c(cc3N2)OCO4)c1 |  |  |  | 0.0965 | > 100 µM | 0.698 | > 100 | 0.226 µM |  |  | 0.036 |  |  |  | 0.0927 | > 100 | 0.0271 | 0.0226 | 0.265 |  |
| CC1[C@@H]2[C@@H](C=C3C4CCC5Cc6nc7c(nc6C[C@@]5(C)C4C[C@H](O)[C@]32CO)CC2CCC3C4=C[C@H]5O[C@@]6(O[C@@](C)(CO)C[C@@H]6O)C(C)[C@@]5(O)[C@]4(C)[C@@H](O)CC3[C@]2(C)C7)O[C@]12CCC(C)(C)O2 (stereo partly specified) | > 3.65 | > 3.65 | 0.455 µM and 0.284 µM | 0.0745 | 0.0841 µM and 0.165 µM | 0.429 |  | 0.134 µM and 0.16 µM | 0.0049 | 0.0228 |  | > 3.65 |  | > 3.65 |  |  | 0.00864 | 0.00489 | 0.00409 | 0.0114 |
| CC1=CCC[C@@]2(C)C(CC[C@@H]2C(C)/C=C/C(C)C)c2ccc(cc2C(=O)O)C[C@@H](O)CC1 (stereo partly specified) | 27.9 | 33.3 | 37.5 µM | 23 | 35.3 µM | 29.8 | 25.6 | 12.5 µM |  |  |  |  |  |  |  |  |  |  |  |  |
| CC(C)=CCN=C(N)N | > 100 | > 100 | > 100 µM | > 100 |  | > 100 | > 100 | > 100 µM |  |  |  | > 100 |  |  |  | > 100 |  |  |  |  |
| O=P([O-])(O)OP(=O)([O-])O.[NH-][C@H]1CCCC[C@@H]1[NH-].[OH-].[OH-].[Pt+4] | 60.4 | 63.6 |  | 92.2 | 39.9 µM |  | > 100 | > 100 µM | 21.8 |  | 22.7 | 78.1 | 71.2 | 22.7 | 25.2 | 68.2 | 42.3 | 22 | 21.1 |  |
| COc1cc(C(=O)OCCCCCCCCCCC[P+](c2ccccc2)(c2ccccc2)c2ccccc2)ccc1O |  | 1.53 | 1.88 µM | 2.44 | 5.23 µM |  |  |  |  |  | 2.43 | 6.52 |  | 0.345 |  |  |  | 0.768 | 1.84 | 0.522 |
| COC(=O)Cc1cc(OC)c(OC)cc1Br |  | > 100 | > 100 µM | > 100 | > 100 µM | > 100 | > 100 |  |  |  |  |  |  |  |  |  |  |  |  |  |
| C=C(CNC(=O)Nc1ccc(-c2ccccc2)cc1)c1ccc(C(=O)Nc2ccccc2N)cc1 |  | > 100 | > 100 µM | > 100 | > 100 µM | 99 | > 100 | > 100 µM |  | 15 | 58.3 | > 100 | > 100 | 58.9 | 51.5 | > 100 | 94.3 | > 100 | 37.4 | > 100 |

— PubChem BioAssay (NCI)
